Experimental data reported in patent publication US9988400B2 (Genentech, Inc., priority 2013, dated 2018).

Biological target: T1, HEK cells stably transfected with tetracycline inducible hNR1 and hNR2A (Homo sapiens, UniProt Q05586+Q12879)
T1 construct: expressed in transfected cells; host or cells: HEK cells, stably transfected, tetracycline/doxycycline inducible
Assay: Assay 1: Cell-Based Assay, cytosolic calcium response to positive allosteric modulators (with 30 μM glycine and 300 nM L-glutamate, EC30)
Settings: Table 2; for EC50: cytosolic calcium response, with 30 μM glycine and 300 nM L-glutamate (EC30), — = no plateau was reached; for Max %: responses scaled relative to 100 μM L-glutamate maximal response (100%) and 0 μM L-glutamate (0%)
Experimental: Assay 1: Cell-Based Assay
HEK cells stably transfected with tetracycline inducible hNR1 and hNR2A were seeded into clear bottom 384 well poly-D-lysine coated plates (2.5×10^4 cells per well) in Minimum Essential Media (MEM; without L-) including 7.5 μg mL^−1 doxycycline and 500 μM (+)-ketamine. The cells were incubated at 37° C. in 5% CO2 for 24 h. For measurement of changes in cytosolic calcium, the seeding media was removed and the cells incubated at 37° C. for 60 min with 1× Becton Dickinson Calcium Assay Kit reagent in Hanks Balanced Salt Solution (HBSS; w/o magnesium, including 1.8 mM calcium, 0.65 mg ml^−1 probenecid and 10 μM (+)-ketamine, pH 7.15) then allowed to equilibrate to rt for 30 min. Concentration-effect curves to Positive Allosteric Modulators (PAMs) were constructed by adding different concentrations (with 30 μM glycine and 300 nM L-glutamate (EC30)) to different wells in HBSS. Compounds were added after a 10 second baseline read and maximum level of relative fluorescence units (RFU) was measured over a 5 min period. Responses were scaled relative to 100 μM L-glutamate maximal response (100%) and 0 μM L-glutamate (0%). EC50 values are provided for compounds reaching maximal response plateaus, and the max % (EC50 (- -)) only if no plateau was reached.
A four-parameter Hill equation was fitted to individual concentration-effect curves:
[formula] in which Y, S0, Sinf, AC50, n and c were effect, lower-asymptote, upper-asymptote, mid-point location, slope parameter, and concentration respectively.

T1 sequence (Q12879 23-1464, other chains not shown): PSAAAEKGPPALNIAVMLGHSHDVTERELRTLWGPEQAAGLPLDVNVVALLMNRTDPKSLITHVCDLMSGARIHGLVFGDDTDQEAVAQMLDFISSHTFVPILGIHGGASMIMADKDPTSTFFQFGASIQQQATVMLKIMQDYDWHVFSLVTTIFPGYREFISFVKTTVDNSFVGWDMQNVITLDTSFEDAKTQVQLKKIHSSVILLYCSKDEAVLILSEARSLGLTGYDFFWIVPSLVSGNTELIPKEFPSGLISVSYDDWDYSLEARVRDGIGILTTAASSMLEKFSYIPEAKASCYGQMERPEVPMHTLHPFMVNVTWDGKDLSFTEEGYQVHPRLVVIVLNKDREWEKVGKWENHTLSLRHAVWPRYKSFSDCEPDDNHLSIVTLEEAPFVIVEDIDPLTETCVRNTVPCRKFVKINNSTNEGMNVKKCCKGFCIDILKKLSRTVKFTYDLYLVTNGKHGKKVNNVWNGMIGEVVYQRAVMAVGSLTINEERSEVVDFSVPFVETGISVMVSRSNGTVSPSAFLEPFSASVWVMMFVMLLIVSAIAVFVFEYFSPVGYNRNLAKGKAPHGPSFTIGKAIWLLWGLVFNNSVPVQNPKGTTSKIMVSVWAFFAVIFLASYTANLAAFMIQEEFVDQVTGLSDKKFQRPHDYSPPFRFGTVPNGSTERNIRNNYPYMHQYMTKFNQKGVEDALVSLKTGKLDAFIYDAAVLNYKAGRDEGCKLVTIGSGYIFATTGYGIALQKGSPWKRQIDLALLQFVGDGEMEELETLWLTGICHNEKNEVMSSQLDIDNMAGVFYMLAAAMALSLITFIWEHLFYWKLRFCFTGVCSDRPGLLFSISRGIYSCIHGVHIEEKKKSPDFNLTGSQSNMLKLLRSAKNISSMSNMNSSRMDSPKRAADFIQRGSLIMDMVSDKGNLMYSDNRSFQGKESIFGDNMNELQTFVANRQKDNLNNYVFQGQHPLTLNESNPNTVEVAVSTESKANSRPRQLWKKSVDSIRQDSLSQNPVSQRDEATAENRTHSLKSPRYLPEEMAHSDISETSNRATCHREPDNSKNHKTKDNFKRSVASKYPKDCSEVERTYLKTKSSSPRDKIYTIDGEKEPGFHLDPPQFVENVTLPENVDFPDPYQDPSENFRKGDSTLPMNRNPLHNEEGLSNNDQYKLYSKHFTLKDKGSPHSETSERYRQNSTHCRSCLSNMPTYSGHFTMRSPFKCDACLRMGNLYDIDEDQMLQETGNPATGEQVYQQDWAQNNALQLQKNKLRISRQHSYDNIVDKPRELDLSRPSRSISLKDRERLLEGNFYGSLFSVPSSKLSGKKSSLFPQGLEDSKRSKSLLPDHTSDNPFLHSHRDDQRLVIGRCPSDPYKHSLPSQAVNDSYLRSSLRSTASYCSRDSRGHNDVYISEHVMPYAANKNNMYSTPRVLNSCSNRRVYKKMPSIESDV

| SMILES | EC50 | Max % |
| --- | --- | --- |
| Cc1sc2nc(Cn3nc(C(F)(F)F)cc3C3CC3)cc(=O)n2c1[C@@H]1C[C@H]1CO (relative stereo) [Example 15.11, 7-((5-cyclopropyl-3-(trifluoromethyl)-1H-pyrazol-1-yl)methyl)-3-(trans-2-(hydroxymethyl)cyclopropyl)-2-methyl-5H-thiazolo[3,2-a]pyrimidin-5-one] | 0.151 µM | 159% |
| Cc1sc2nc(Cn3nc(C4CC4)cc3C(F)(F)F)cc(=O)n2c1[C@@H]1C[C@H]1CO (relative stereo) [Example 15.12, 7-((3-cyclopropyl-5-(trifluoromethyl)-1H-pyrazol-1-yl)methyl)-3-(trans-2-(hydroxymethyl)cyclopropyl)-2-methyl-5H-thiazolo[3,2-a]pyrimidin-5-one] | 2.5 µM | 143% |
| Cc1sc2nc(Cn3nc(C4CC4)cc3C3CC3)cc(=O)n2c1[C@@H]1C[C@H]1CO (relative stereo) [Example 15.17, 7[(3,5-dicyclopropylpyrazol-1-yl)methyl]-3-[trans-2-(hydroxymethyl)cyclopropyl]-2-methyl-thiazolo[3,2-a]pyrimidin-5-one] | 3.4 µM | 137% |
| Cc1cc(C)n(Cc2nc3sc(C)c([C@@H]4C[C@H]4CO)n3c(=O)c2F)n1 (relative stereo) [Example 15.18, 7-((3,5-dimethyl-1H-pyrazol-1-yl)methyl)-6-fluoro-3-(trans-2-(hydroxymethyl)cyclopropyl)-2-methyl-5H-thiazolo[3,2-a]pyrimidin-5-one] | 10.5 µM | 143% |
| Cc1sc2nc(Cn3nc(C(F)(F)F)cc3C#N)cc(=O)n2c1[C@@H]1C[C@H]1CO (relative stereo) [Example 15.19, 1-((3-(trans-2-(hydroxymethyl)cyclopropyl)-2-methyl-5-oxo-5H-thiazolo[3,2-a]pyrimidin-7-yl)methyl)-3-(trifluoromethyl)-1H-pyrazole-5-carbonitrile] | 0.512 µM | 126% |
| Cc1sc2nc(Cn3nc(C(F)(F)F)cc3C3CC3)c(F)c(=O)n2c1[C@@H]1C[C@H]1CO (relative stereo) [Example 15.20, 7-((5-cyclopropyl-3-(trifluoromethyl)-1H-pyrazol-1-yl)methyl)-6-fluoro-3-(trans-2-(hydroxymethyl)cyclopropyl)-2-methyl-5H-thiazolo[3,2-a]pyrimidin-5-one] | 0.314 µM | 153% |
| Cc1sc2nc(Cn3nc(C#N)cc3C)cc(=O)n2c1[C@@H]1C[C@H]1CO (relative stereo) [Example 15.21, 1-[[3-[trans-2-(hydroxymethyl)cyclopropyl]-2-methyl-5-oxo-thiazolo[3,2-a]pyrimidin-7-yl]methyl]-5-methyl-pyrazole-3-carbonitrile] | 1.6 µM | 161% |
| Cc1sc2nc(Cn3nc(C(F)F)cc3C)cc(=O)n2c1[C@@H]1C[C@H]1CO (relative stereo) [Example 15.22, 7[[3-(difluoromethyl)-5-methyl-pyrazol-1-yl]methyl]-3-[trans-2-(hydroxymethyl)cyclopropyl]-2-methyl-thiazolo[3,2-a]pyrimidin-5-one] | 0.704 µM | 149% |
| Cc1sc2nc(Cn3ncc4ccc(F)cc43)cc(=O)n2c1[C@@H]1C[C@H]1CO (relative stereo) [Example 15.23, 7-[(6-fluoroindazol-1-yl)methyl]-3-[trans-2-(hydroxymethyl)cyclopropyl]-2-methyl-thiazolo[3,2-a]pyrimidin-5-one] | 1.9 µM | 143% |
| Cc1cc(C)n(Cc2cc(=O)n3c([C@@H]4C[C@H]4CO)c(C)sc3n2)n1 (relative stereo) [Example 15.25, 7-[(3,5-dimethylpyrazol-1-yl)methyl]-3-[trans-2-(hydroxymethyl)cyclopropyl]-2-methyl-thiazolo[3,2-a]pyrimidin-5-one] | 16.5 µM | 137% |
| Cc1sc2nc(Cn3ncc4cc(F)ccc43)cc(=O)n2c1[C@@H]1C[C@H]1CO (relative stereo) [Example 15.26, 7-[(5-fluoroindazol-1-yl)methyl]-3-[trans-2-(hydroxymethyl)cyclopropyl]-2-methyl-thiazolo[3,2-a]pyrimidin-5-one] | 3.8 µM | 123% |
| Cc1sc2nc(C(C)n3nc(C(F)(F)F)cc3C3CC3)cc(=O)n2c1[C@@H]1C[C@H]1CO (relative stereo) [Example 19.1, 7-(1-(5-cyclopropyl-3-(trifluoromethyl)-1H-pyrazol-1-yl)ethyl)-3-(trans-2-(hydroxymethyl)cyclopropyl)-2-methyl-5H-thiazolo[3,2-a]pyrimidin-5-one] | 12.2 µM | 116% |
| Cc1sc2nc(COc3ccc(F)cc3)cc(=O)n2c1C1CC1CO (single isomer, unassigned) [Example 4.1, 7-(4-Fluorophenoxymethyl)-3-[trans-2-(hydroxymethyl)cyclopropyl]-2-methyl-5H-[1,3]thiazolo[3,2-a]pyrimidin-5-one] | 5.1 µM | 141% |
| Cc1sc2nc(COc3ccc(F)cc3)cc(=O)n2c1C1CC1CO (single isomer, unassigned) [Example 4.2, 7-(4-Fluorophenoxymethyl)-3-[trans-2-(hydroxymethyl)cyclopropyl]-2-methyl-5H-[1,3]thiazolo[3,2-a]pyrimidin-5-one] | 1.3 µM | 137% |

Continued, values first:

| EC50 | Max % | SMILES |
| --- | --- | --- |
| 1.8 µM | 148% | Cc1sc2nc(Cc3cccc(C#N)c3F)cc(=O)n2c1[C@@H]1C[C@H]1CO (relative stereo) [Example 20.3, 2-fluoro-3-((3-(trans-2-(hydroxymethyl)cyclopropyl)-2-methyl-5-oxo-5H-thiazolo[3,2-a]pyrimidin-7-yl)methyl)benzonitrile] |
| 8.5 µM | 147% | Cc1sc2nc(Cc3cncc4ccccc34)cc(=O)n2c1[C@@H]1C[C@H]1CO (relative stereo) [Example 20.4, 3-(trans-2-(hydroxymethyl)cyclopropyl)-7-(isoquinolin-4-ylmethyl)-2-methyl-5H-thiazolo[3,2-a]pyrimidin-5-one] |
| 24 µM | 124% | Cc1sc2nc(Cc3cccc(C(F)(F)F)c3)cc(=O)n2c1[C@@H]1C[C@H]1CO (relative stereo) [Example 20.5, 3-(trans-2-(hydroxymethyl)cyclopropyl)-2-methyl-7-(3-(trifluoromethyl)benzyl)-5H-thiazolo[3,2-a]pyrimidin-5-one] |
| 7.2 µM | 137% | Cc1ccc(C#N)cc1Cc1cc(=O)n2c([C@@H]3C[C@H]3CO)c(C)sc2n1 (relative stereo) [Example 20.6, 3-((3-(trans-2-(hydroxymethyl)cyclopropyl)-2-methyl-5-oxo-5H-thiazolo[3,2-a]pyrimidin-7-yl)methyl)-4-methylbenzonitrile] |
| 10.8 µM | 137% | Cc1sc2nc(Cc3cc(C#N)ccc3F)cc(=O)n2c1[C@@H]1C[C@H]1CO (relative stereo) [Example 20.7, 4-fluoro-3-((3-(trans-2-(hydroxymethyl)cyclopropyl)-2-methyl-5-oxo-5H-thiazolo[3,2-a]pyrimidin-7-yl)methyl)benzonitrile] |
| 19 µM | 134% | Cc1sc2nc(Cc3cc(F)cc(C#N)c3)cc(=O)n2c1[C@@H]1C[C@H]1CO (relative stereo) [Example 20.8, 3-fluoro-5-((3-(trans-2-(hydroxymethyl)cyclopropyl)-2-methyl-5-oxo-5H-thiazolo[3,2-a]pyrimidin-7-yl)methyl)benzonitrile] |
| 13.9 µM | 133% | Cc1sc2nc(Cc3ccc(F)c(C#N)c3)cc(=O)n2c1[C@@H]1C[C@H]1CO (relative stereo) [Example 20.9, 2-fluoro-5-((3-(trans-2-(hydroxymethyl)cyclopropyl)-2-methyl-5-oxo-5H-thiazolo[3,2-a]pyrimidin-7-yl)methyl)benzonitrile] |
| 9.1 µM | 127% | COc1ccc(C#N)cc1Cc1cc(=O)n2c([C@@H]3C[C@H]3CO)c(C)sc2n1 (relative stereo) [Example 20.10, 3-[[3-[trans-2-(hydroxymethyl)cyclopropyl]-2-methyl-5-oxo-thiazolo[3,2-a]pyrimidin-7-yl]methyl]-4-methoxy-benzonitrile] |
|  | 74% | Cc1sc2nc(Cc3ccnc(C#N)c3)cc(=O)n2c1[C@@H]1C[C@H]1CO (relative stereo) [Example 20.12, 4-((3-(trans-2-(hydroxymethyl)cyclopropyl)-2-methyl-5-oxo-5H-thiazolo[3,2-a]pyrimidin-7-yl)methyl)picolinonitrile] |
| 5.8 µM | 146% | Cc1sc2nc(Cc3cc(C#N)ccc3C3CC3)cc(=O)n2c1[C@@H]1C[C@H]1CO (relative stereo) [Example 20.13, 4-cyclopropyl-3-((3-(trans-2-(hydroxymethyl)cyclopropyl)-2-methyl-5-oxo-5H-thiazolo[3,2-a]pyrimidin-7-yl)methyl)benzonitrile] |
